# Measurements reported in patent US20010031768A1, “Triazole antifungal agent” (SANKYO COMPANY LIMITED, priority 1995, published 2001).
# Read-outs that look alike come from different tables or passages of the source.
# Tested on: Candida albicans
# Assay: Survival of mice infected with Candida albicans after oral administration
# Assay type: in vivo
# Settings: for responders at 20 mg/kg: po
# Procedure: To mice (one group consisting of 10 mice), which were innoculated with 4 to 9×10^6 Candida albicans, were administered orally 20 mg/kg of preparations after 1, 4 and 24 hours, and thereafter the survival rate until 21 days after infection was examined.
# [1] = 336 h, mice inoculated with 4 to 9×10^6 Candida albicans, 20 mg/kg orally after 1, 4 and 24 hours, 14 days after infection, read-out: Survival rate % 14 days
# [2] = 504 h, mice inoculated with 4 to 9×10^6 Candida albicans, 20 mg/kg orally after 1, 4 and 24 hours, 21 days after infection, read-out: Survival rate % 21 days
Structure (SMILES),responders at 20 mg/kg [1],responders at 20 mg/kg [2],further results
"CC(C)(SC1COC(/C=C/c2ccc(C(F)(F)F)cc2)OC1)C(O)(Cn1cncn1)c1ccc(C(F)(F)F)cc1 (racemic) [Example 30, (RS)-3-Methyl-1-(1 H-1,2,4-triazol-1-yl)-2-[4-(trifluoromethyl)phenyl]-3-[[trans-2-[(E)-2-[4-(trifluoromethyl)phenyl]vinyl]-1,3-dioxan-5-yl]thio]-2-butanol]",100%,100%,–
"C[C@@H](S[C@H]1CO[C@H](/C=C/c2ccc(C(F)(F)F)cc2)OC1)[C@](O)(Cn1cncn1)c1ccc(F)cc1F [Example 2, (2R,3R)-2-(2,4-Difluorophenyl)-3-[[trans-2-[(E)-2-[4-(trifluoromethyl)phenyl]vinyl]-1,3-dioxan-5-yl]thio]-1-(1 H-1,2,4-triazol-1-yl)-2-butanol]",100%,100%,–
"C[C@@H](S[C@H]1CO[C@H](/C=C/c2ccc(OC(F)(F)F)cc2)OC1)[C@](O)(Cn1cncn1)c1ccc(F)cc1F [Example 11, (2R,3R)-2-(2,4-Difluorophenyl)-1-(1 H-1,2,4-triazol-1-yl)-3-[[trans-2-[(E)-2-[4-(trifluoromethoxy)phenyl]vinyl]-1,3-dioxan-5-yl]thio]-2-butanol]",100%,100%,–
"C[C@@H](S[C@H]1CO[C@H](/C=C/C=C/c2ccc(C(F)(F)F)cc2)OC1)[C@](O)(Cn1cncn1)c1ccc(F)cc1F [Example 15, (2R,3R)-2-(2,4-Difluorophenyl)-1-(1 H-1,2,4-triazol-1-yl) -3-[[trans-2-[(1 E,3 E)-4-[4-(trifluoromethyl)phenyl]-1,3-butadien-1-yl]-1,3-dioxan-5-yl]thio]-2-butanol]",100%,100%,–
"C[C@@H](S[C@H]1CO[C@H](/C=C/C=C/c2ccc(OCC(F)(F)C(F)F)cc2)OC1)[C@](O)(Cn1cncn1)c1ccc(F)cc1F [Example 16, (2R,3R)-2-(2,4-Difluorophenyl)-3-[[trans-2-[(1 E,3 E)-4-[4-(2,2,3,3-tetrafluoropropoxy)phenyl]-1,3-butadien-1-yl]-1,3-dioxan-5-yl]thio]-1-(1 H-1,2,4-triazol-1-yl)-2-butanol]",100%,100%,–
"C[C@@H](S[C@H]1CO[C@H](/C=C/C=C(/c2ccc(Cl)cc2)C(F)(F)F)OC1)[C@](O)(Cn1cncn1)c1ccc(F)cc1F [Example 18, (2R,3R) -2-(2,4-Difluorophenyl)-3-[[trans-2-[(1 E,3 Z)-4-(4-chlorophenyl)-5,5,5-trifluoro-1,3-pentadien-1-yl]-1,3-dioxan-5-yl]thio]-1-(1 H-1,2,4-triazol-1-yl)-2-butanol]",100%,100%,–
"C[C@@H](SC1CCN(C(=O)/C=C/c2ccc(OC(F)(F)F)cc2)CC1)[C@](O)(Cn1cncn1)c1ccc(F)cc1F [Example 21, (2R,3R)-2-(2,4-Difluorophenyl) -3-[[1-[(E)-4-(trifluoromethoxy)cinaamoyl]piperidin-4-yl]thio]-1-(1 H-1,2,4-triazol-1-yl)-2-butanol]",–,–,"Survival rate % 14 days (mice inoculated with 4 to 9×10^6 Candida albicans, 20 mg/kg orally after 1, 4 and 24 hours, 14 days after infection): 100%; Survival rate % 21 days (mice inoculated with 4 to 9×10^6 Candida albicans, 20 mg/kg orally after 1, 4 and 24 hours, 21 days after infection): 60%"
"C[C@@H](S[C@H]1CO[C@H](/C=C/C=C/c2ccc(SC(F)(F)F)cc2)OC1)[C@](O)(Cn1cncn1)c1ccc(F)cc1F [Example 32, (2R,3R)-2-(2,4-Difluorophenyl)-1-(1 H-1,2,4-triazol-1-yl)-3-[[trans-2-[(1E, 3E) -4-[4-(trifluoromethylthio)phenyl]-1,3-butadien-1-yl]-1,3-dioxan-5-yl]thio]-2-butanol]",100%,100%,–
"C[C@@H](S[C@H]1CO[C@H](/C=C/C=C/c2ccc([S+]([O-])C(F)(F)F)cc2)OC1)[C@](O)(Cn1cncn1)c1ccc(F)cc1F (stereo partly drawn) [Example 35, (2R,3R)-2-(2,4-Difluorophenyl)-1-(1 H-1,2,4-triazol-1-yl)-3-[[trans-2-[(1E,3E)-4-[4-(trifluoromethylsulfinyl)phenyl]-1,3-butadien-1-yl]-1,3-dioxan-5-yl]thio]-2-butanol]",100%,100%,–
"CC(SC1COC(/C=C/C=C/C=C/c2ccc(C(F)(F)F)cc2)OC1)C(O)(Cn1cncn1)c1ccc(F)cc1F [Example 37, (2R,3R)-2-(2,4-Difluorophenyl)-1-(1 H-1,2,4-triazol-1-yl)-3-[[trans-2-[(1E,3E,5E)-6-[4-(trifluoromethyl)phenyl]-1,3,5-hexatrien-1-yl]-1,3-dioxam-5-yl]thio]-2-butanol]",100%,100%,–
"OC(Cn1cncn1)(Cn1cncn1)c1ccc(F)cc1F [Fluconazol, reference compound]",–,–,"responders at 20 mg/kg (Candida albicans, 336 h, read-out: Survival rate % 14 days): 70%; responders at 20 mg/kg (Candida albicans, 504 h, read-out: Survival rate % 21 days): 60%"
